Source: patent US10647673B2, “Acetophenone compound, preparation method thereof, and application thereof in fatty liver prevention and treatment” (Nanjing Bioenergy Medicine Science & Technology Co., Ltd., priority 2017, dated 2020)

Test system: fatty liver of the SD rats
Experiment: Pathological sections and grading of fatty liver of SD rats
Type: in vivo
Conditions: compounds 80 mg/kg, Sim 10 mg/kg, OCA 10 mg/kg
Experimental: 500 g of lard oil was taken, placed in a container, and heated to melt. When the temperature rose to 100° C., it was added with 200 g of cholesterol to dissolve completely, and then further added with 20 g of propylthiouracil. The resulted mixture was stirred well, and added with 500 ml of Tween 80 after dissolution, resulting in an oil phase. At the same time, 600 mL of distilled water and 400 mL of 1,2-propanediol were taken and heated to 60° C. in a water bath, then were added with 40 g of sodium deoxycholate. The resulted mixture was stirred well until realizing complete dissolution, so as to give an aqueous phase. The aqueous phase was added into the oil phase and mixed well to give a lipid emulsion. The lipid emulsion was heated in a water bath of 37° C. before intragastric administration to animals.
An appropriate amount of pharmaceutical was weighed, added with 0.5% CMC-Na, and mixed homogeneously by grinding. There are groups for Compound 01 (80 mg/kg), Compound 02 (80 mg/kg), Compound 03 (80 mg/kg), Compound 04 (80 mg/kg), Compound 05 (80 mg/kg), Compound 06 (80 mg)/kg), Compound 07 (80 mg/kg), Compound 08 (80 mg/kg), Compound 09 (80 mg/kg), Compound 10 (80 mg/kg), Compound 11 (80 mg/kg), Compound 12 (80 mg/kg), Compound 13 (80 mg/kg), Compound 14 (80 mg/kg), Compound 15 (80 mg/kg), Compound 16 (80 mg/kg), Compound 17 (80 mg/kg), Compound 18 (80 mg/kg), Compound 19 (80 mg/kg), Compound 20 (80 mg/kg), Compound 21 (80 mg/kg), and Compound 22 (80 mg/kg).
Male SD rats weighing 180-200 g were fed adaptively for 7 days. Based on body weight, 10 animals were used as control and the remaining animals were intragastrically administered with the lipid emulsion every day, 1 ml/100 g body weight for 14 days. After fasting for 12 hours, 1 mL of blood was collected from the orbits of the animals, and was determined by Hitachi Automatic Biochemical Analyzer 7080 for serum cholesterol (CHO), triglyceride (TG), low density lipoprotein (LDL-C) and high density lipoprotein (HDL-C).
The modeled rats were continued with the intragastric administration of the lipid emulsion. At the same time, the pharmaceutical-administered groups were administrated with a corresponding dose of pharmaceuticals, while the Model group was administrated with an equal volume of solvent. The pharmaceutical-administered groups were administrated with the lipid emulsion in the morning, and with the pharmaceuticals in the afternoon. The animals were measured for the body weight once a week, and were observed. After 14 days of continuous administration, 1 mL of blood was collected from the orbits, and was determined for the contents of triglyceride, cholesterol, low density lipoprotein and high density lipoprotein in blood serum.

Row | SMILES | Pathological grading: Steatotic hepatocytes (animal 1) | Pathological grading: Steatotic hepatocytes (animal 2) | Pathological grading: Steatotic hepatocytes (animal 3) | Pathological grading: Steatotic hepatocytes (animal 4) | Pathological grading: Steatotic hepatocytes (animal 5)
1 | CC(=O)c1ccc(NC(=O)c2cccnc2)cc1 [Compound 01] | ++ (45-65% of hepatocytes undergoing steatosis) | ++ (45-65% of hepatocytes undergoing steatosis) | ++ (45-65% of hepatocytes undergoing steatosis) | ++ (45-65% of hepatocytes undergoing steatosis) | ++ (45-65% of hepatocytes undergoing steatosis)
2 | Nc1ccc(C(=O)CNC(=O)c2cccnc2)cc1 [Compound 03] | ++ (45-65% of hepatocytes undergoing steatosis) | + (25-45% of hepatocytes undergoing steatosis) | +++ (65-85% or more of hepatocytes undergoing steatosis) | ++ (45-65% of hepatocytes undergoing steatosis) | ++ (45-65% of hepatocytes undergoing steatosis)
3 | Cc1ccc(C)c(OCCCC(C)(C)C(=O)NCC(=O)c2ccc(N)cc2)c1 [Compound 04] | ++ (45-65% of hepatocytes undergoing steatosis) | ++ (45-65% of hepatocytes undergoing steatosis) | ++ (45-65% of hepatocytes undergoing steatosis) | +++ (65-85% or more of hepatocytes undergoing steatosis) | ++ (45-65% of hepatocytes undergoing steatosis)
4 | CC(=O)c1ccc(O)c(NC(=O)C(C)(C)CCCOc2cc(C)ccc2C)c1 [Compound 05] | + (25-45% of hepatocytes undergoing steatosis) | +++ (65-85% or more of hepatocytes undergoing steatosis) | ++ (45-65% of hepatocytes undergoing steatosis) | ++ (45-65% of hepatocytes undergoing steatosis) | + (25-45% of hepatocytes undergoing steatosis)
5 | CC(=O)c1ccc(O)c(NC(=O)c2cccnc2)c1 [Compound 06] | + (25-45% of hepatocytes undergoing steatosis) | ++ (45-65% of hepatocytes undergoing steatosis) | ++ (45-65% of hepatocytes undergoing steatosis) | + (25-45% of hepatocytes undergoing steatosis) | ++ (45-65% of hepatocytes undergoing steatosis)
6 | CC(=O)c1ccc(NC(=O)C(C)(C)Oc2ccc(C(=O)c3cccc(Cl)c3)cc2)cc1 [Compound 07] | ++ (45-65% of hepatocytes undergoing steatosis) | ++ (45-65% of hepatocytes undergoing steatosis) | ++ (45-65% of hepatocytes undergoing steatosis) | ++ (45-65% of hepatocytes undergoing steatosis) | + (25-45% of hepatocytes undergoing steatosis)
7 | CC(=O)c1ccc(NC(=O)C(C)(C)Oc2ccc(Cl)cc2)cc1 [Compound 08] | ++ (45-65% of hepatocytes undergoing steatosis) | ++ (45-65% of hepatocytes undergoing steatosis) | + (25-45% of hepatocytes undergoing steatosis) | ++ (45-65% of hepatocytes undergoing steatosis) | + (25-45% of hepatocytes undergoing steatosis)
8 | CC(=O)c1ccc(NC(=O)C(C)(C)Oc2ccc(C3CC3(Cl)Cl)cc2)cc1 (stereo not drawn) [Compound 10] | ++ (45-65% of hepatocytes undergoing steatosis) | ++ (45-65% of hepatocytes undergoing steatosis) | + (25-45% of hepatocytes undergoing steatosis) | ++ (45-65% of hepatocytes undergoing steatosis) | ++ (45-65% of hepatocytes undergoing steatosis)
9 | Cc1ccc(C)c(OCCCC(C)(C)C(=O)NCC(=O)c2ccc(NC(=O)c3cccnc3)cc2)c1 [Compound 11] | + (25-45% of hepatocytes undergoing steatosis) | ++ (45-65% of hepatocytes undergoing steatosis) | ++ (45-65% of hepatocytes undergoing steatosis) | ++ (45-65% of hepatocytes undergoing steatosis) | + (25-45% of hepatocytes undergoing steatosis)
10 | CC(=O)c1ccc(O)c(CCCOC(=O)C(C)(C)CCCOc2cc(C)ccc2C)c1 [Compound 15] | ++ (45-65% of hepatocytes undergoing steatosis) | +++ (65-85% or more of hepatocytes undergoing steatosis) | ++ (45-65% of hepatocytes undergoing steatosis) | ++ (45-65% of hepatocytes undergoing steatosis) | ++ (45-65% of hepatocytes undergoing steatosis)
11 | CC(=O)c1ccc(O)c(CCCOC(=O)c2cccnc2)c1 [Compound 16] | + (25-45% of hepatocytes undergoing steatosis) | ++ (45-65% of hepatocytes undergoing steatosis) | +++ (65-85% or more of hepatocytes undergoing steatosis) | ++ (45-65% of hepatocytes undergoing steatosis) | + (25-45% of hepatocytes undergoing steatosis)
12 | CC(C)(Oc1ccc(Cl)cc1)C(=O)Nc1ccc(C(=O)CNC(=O)c2cccnc2)cc1 [Compound 17] | + (25-45% of hepatocytes undergoing steatosis) | ++ (45-65% of hepatocytes undergoing steatosis) | ++ (45-65% of hepatocytes undergoing steatosis) | ++ (45-65% of hepatocytes undergoing steatosis) | ++ (45-65% of hepatocytes undergoing steatosis)
13 | CC(=O)c1ccc(NC(=O)C(C)(C)CCCOc2cc(C)ccc2C)c(O)c1 [Compound 18] | + (25-45% of hepatocytes undergoing steatosis) | + (25-45% of hepatocytes undergoing steatosis) | ++ (45-65% of hepatocytes undergoing steatosis) | ++ (45-65% of hepatocytes undergoing steatosis) | ++ (45-65% of hepatocytes undergoing steatosis)
14 | CC(=O)c1ccc(NC(=O)C(C)(C)Oc2ccc(Cl)cc2)c(O)c1 [Compound 19] | ++ (45-65% of hepatocytes undergoing steatosis) | ++ (45-65% of hepatocytes undergoing steatosis) | ++ (45-65% of hepatocytes undergoing steatosis) | +++ (65-85% or more of hepatocytes undergoing steatosis) | + (25-45% of hepatocytes undergoing steatosis)
15 | CC(=O)c1ccc(NC(=O)c2cccnc2)c(O)c1 [Compound 20] | ++ (45-65% of hepatocytes undergoing steatosis) | +++ (65-85% or more of hepatocytes undergoing steatosis) | ++ (45-65% of hepatocytes undergoing steatosis) | ++ (45-65% of hepatocytes undergoing steatosis) | ++ (45-65% of hepatocytes undergoing steatosis)
